The text below walks through data of US20030219494A1, “Compositions and methods of using them” (priority 2002, published 2003).

Series [1] relates to mechanical allodynia in STZ-diabetic DA rats. Put plainly: von Frey antinociception (relief of mechanical allodynia) after single s.c. opioid in STZ-diabetic DA rats, standard chow or dietary L-arginine. The settings on record: for ED50: Rattus norvegicus, sc; for peak antinociception / time of decline of antinociception to baseline levels (<20% MPE) / time to peak antinociception: 3 wks post-STZ. As to the method:
Deep and stable anaesthesia was induced with a mixture of ketamine (100 mg/kg, i.p.) and xylazine (16 mg/kg, i.p.) to facilitate insertion of a polyethylene cannula (previously filled with 0.1 ml of sterile saline) into the right common jugular vein. Jugular vein cannulae were tested for correct placement by the withdrawal of a small amount of blood. Diabetes was induced following an acute i.v. injection of streptozotocin (STZ) (85 mg/kg) in 0.1 M citrate buffer (pH 4.5) into the jugular vein.
Naïve non-diabetic rats (n=36) were used in the control experiments. Following STZ administration, benzylpenicillin (60 mg, s.c.) was administered to prevent infection and rats were monitored closely during surgical recovery. Rats were then housed singly or in pairs for period of 3 wks to 38 wks, depending upon the study cohort to which they belonged.
(§1) Multiple aliquots of these stock solutions were stored at −20° C. until required. […] Whilst under light anaesthesia with CO2/O2 (50:50%), rats received a single s.c. injection (100 μL) of one opioid or vehicle (saline) into the dorsal region of the base of the neck, using a 250 μL Hamilton syringe.
(§2) Mechanical allodynia, the distinguishing feature of diabetic neuropathic pain, was quantified using von Frey filaments. Rats were placed in a metabolic cage (20 cm×20 cm×20 cm) with a metal mesh floor and allowed to acclimatise for approximately 10 min. von Frey filaments were used to quantify the lowest mechanical threshold required for a brisk paw withdrawal reflex. The force was applied to the plantar surface of the left hindpaw and held until the filament buckled slightly. The absence of a response after 5 s prompted application of the next filament of increasing force. Filaments available for use included those that produced a buckling weight of 2, 4, 5, 6, 8, 10, 12, 14, 16, and 18 g. Filaments were calibrated daily before undertaking antinociceptive testing. […] Pre-drug (opioid or saline) responses were the mean of three readings taken ≈5 min apart. Assessment of von Frey filament responsiveness was determined at the following times post-opioid (or saline) administration: 15, 30, 45, 60, 90, 120 and 180 min.
(§3) The von Frey scores for individual rats were converted to the Percentage of the Maximum Possible Antinociceptive Effect (% MPE), according to the formula: [formula]
(§4) The mean (±SEM) percentage maximum AUC (% Max AUC) was calculated according to the following formula: [formula]
(§5) ED50 estimation was facilitated by the inclusion of theoretical maximum and minimum % Max AUC values.
This study comprised three groups of STZ-diabetic DA rats. […] Subsequent doses were chosen to facilitate construction of dose-response curves for the alleviation of tactile allodynia. Antinociception was quantified using calibrated von Frey filaments.
At 9 wks post-STZ administration, Group 1 STZ-diabetic rats received a dietary intervention of an L-arginine supplement (1 g per day) incorporated into rat chow, until the end of the 24 wk study period.
At 14 wks post-STZ administration, a dietary intervention comprising L-arginine supplementation (1 g per day in rat chow) was initiated which was continued for another 8 wks.
At 30 wks post-STZ administration, dietary L-arginine supplementation (1 g/day in rat chow) was initiated and continued for 8 wks.

Series [2] relates to naïve control non-diabetic DA rats. Description: von Frey antinociception after single s.c. opioid in control non-diabetic DA rats. The class given is in vivo, rat. To be noted: for ED50: s.c. The method, then: as §1, §2, §3, §4, §5
Weight-matched naïve control DA rats received dietary L-arginine supplementation (1 g per day in rat chow) for at least 1 wk prior to acute opioid administration and concomitant antinociceptive testing. Importantly, since diabetic rats eat twice as much as naïve control non-diabetic rats, the concentration of L-arginine in rat chow administered to control non-diabetic rats was doubled to maintain consistent L-arginine dosing between the STZ-diabetic rats and the control non-diabetic rats.

A short description of series [3]: body weight of control non-diabetic rats given dietary L-arginine. It is filed as in vivo, rat. The settings on record: control non-diabetic rats after 1 wk dietary L-arginine. An excerpt:
Importantly, since diabetic rats eat twice as much as naïve control non-diabetic rats, the concentration of L-arginine in rat chow administered to control non-diabetic rats was doubled to maintain consistent L-arginine dosing between the STZ-diabetic rats and the control non-diabetic rats.

Series [4] concerns tactile allodynia in STZ-diabetic DA rats. Put plainly: baseline von Frey paw withdrawal thresholds in STZ-diabetic rats given dietary L-arginine. The class given is in vivo, rat. An excerpt: Filaments were calibrated daily before undertaking antinociceptive testing.
A short description of series [5]: body weight of STZ-diabetic rats given dietary L-arginine. It is filed as in vivo, rat.
Description: Group 3 STZ-diabetic rats, (n=6, 224.7±2.9 g, mean±SEM) were the same rats used in Example 1 above. […] At 30 wks post-STZ administration, dietary L-arginine supplementation (1 g/day in rat chow) was initiated and continued for 8 wks.
The subject of a further series is naïve Dark Agouti rats. The settings on record: s.c., tail flick test; cited from earlier work. A general note: Thermal pain tests record how soon the animal reacts.
In series [6] the test system is rats with a chronic constriction injury (CCI) of the sciatic nerve. To be noted: relief of mechanical allodynia; cited from earlier work.
[7] abbreviates: 24 wks post-STZ / full 24 wk study period, standard chow.
The mark [8] stands for this setting: 504 h, read-out: Mean (±SEM) ED50, STZ-diabetic rats 3 wks post-STZ, standard chow, s.c.
Setting [9] is: 1512 h, STZ-diabetic rats at 3 and 9 wks post-STZ, standard chow.
The mark [10] stands for this setting: 1512 h, read-out: Mean (±SEM) ED50, STZ-diabetic rats 9 wks post-STZ, standard chow (before L-arginine), s.c.
The mark [11] stands for this setting: STZ-diabetic rats 12 wks post-STZ after 3 wks dietary L-arginine (1 g/day), s.c.
[12] abbreviates: STZ-diabetic rats 24 wks post-STZ after 15 wks dietary L-arginine (1 g/day), s.c.
Setting [13] is: Rattus norvegicus, sc, control naïve non-diabetic rats, standard chow, von Frey % Max AUC, read-out: Mean (±SEM) ED50.
[14] abbreviates: 3 wks supplementation, 9 to 12 wks post-STZ.
Setting [15] is: Group 1, 12 wks post-STZ (3 wks L-arginine).
The mark [16] stands for this setting: Group 2, 18 wks post-STZ (4 wks L-arginine).
[17] abbreviates: Group 2, 22 wks post-STZ (8 wks L-arginine).
The mark [18] stands for this setting: Group 3, 34 wks post-STZ (4 wks L-arginine).
Where [19] appears, read: Group 3, 38 wks post-STZ (8 wks L-arginine).

SMILES strings stand for the structures. Like-named read-outs stand apart in the source and are kept apart here.

In the case of `CN1CC[C@]23c4c5ccc(O)c4O[C@H]2[C@@H](O)C=C[C@H]3[C@H]1C5` [morphine], the antinociceptive efficacy result in series [1] (setting [7]) is on record as “remained completely abolished”; in series [1] (morphine 6.1 mg/kg s.c., 14 wks post-STZ, before L-arginine (Group 2)), “completely abolished”; in series [1] (morphine 14.2 mg/kg s.c., 12 wks post-STZ) it was “remained completely abolished”; in series [1] (morphine s.c., 24 wks post-STZ, 15 wks dietary L-arginine), “maintained”. In addition, the ED50 turned out to be 6.1 mg/kg in series [1] (setting [8]); 6.1 ± 0.3 mg/kg in series [1] (setting [9]); 6.1 mg/kg in series [1] (setting [10]); 7 ± 0.5 mg/kg in series [1] (setting [11]); 5 ± 0.9 mg/kg in series [1] (setting [12]); 2.4 mg/kg in series [2] (setting [13]). Besides, the ED50 result in series [2] (control non-diabetic rats, dietary L-arginine 1 g/day for 1 wk) is “does not differ significantly”. For the same compound, the “Mean (±SEM) ED50” value is reported as “No efficacy” in series [1] (STZ-diabetic rats 12 wks post-STZ, standard chow, s.c.) and “No efficacy” in series [1] (STZ-diabetic rats 24 wks post-STZ, standard chow, s.c.). The same compound returned a peak antinociception in series [1] (morphine 4 mg/kg s.c.) of 70 % MPE. Besides, the “time of decline of antinociception to baseline levels (<20% MPE)” value in series [1] (morphine 4 mg/kg s.c.) is on record as at most 90 min. The “time to peak antinociception” value in series [1] (morphine 4 mg/kg s.c.) was at most 15 min. Besides, in series [1] (morphine 6.1 mg/kg s.c., 16 wks post-STZ, 7 wks dietary L-arginine), the “efficacy for the relief of mechanical allodynia” value is reported as “maintained”. Further, in series [1] (morphine 18 mg/kg s.c., 12 wks post-STZ), the antinociception result is given as “absence of antinociception”. Further, the behavioural side effects result in series [1] (morphine 18 mg/kg s.c., STZ-diabetic rats 12 wks post-STZ (myoclonus, biting of cage)) is “mild neuro-excitatory behaviours”. Besides, the “potency for relief of mechanical allodynia as percent of that in control non-diabetic rats” value in series [1] (morphine, STZ-diabetic rats, 11 wks dietary L-arginine (20 wks post-STZ)) is given as “≈ 90%”.

`N=C(N)NCCC[C@H](N)C(=O)O` [L-arginine]: the “effect of dietary L-arginine on morphine's antinociceptive efficacy” value in series [1] (setting [14]) is listed as “prevented the abolition”. In series [1] (setting [14]), the “effect of dietary L-arginine on oxycodone potency” value was “prevented the 2-fold decrease”. The “effect of dietary L-arginine on antinociceptive potency of morphine” value in series [1] (4 wks supplementation (30 to 34 wks post-STZ), Group 3) is “partially restored”. Besides, the “effect of dietary L-arginine on antinociceptive efficacy of s.c. morphine (6.1 mg/kg)” value in series [1] (4 wks supplementation, Group 2, 18 wks post-STZ) is listed as “restored”. Also, in series [1] (started 14 and 30 wks post-STZ (groups 2 and 3), after as little as 4 wks), the “effect of late-initiated dietary L-arginine on morphine efficacy” value is recorded as “restored morphine efficacy”. The “mean (±SEM) body weight” value is 236.3 g in series [3]; 229.0 (±6.0) g in series [5] (setting [15]); 218.0 (±7.2) g in series [5] (Group 1, 16 wks post-STZ (7 wks L-arginine)); 253.4 (±9.9) g in series [5] (Group 1, 20 wks post-STZ (11 wks L-arginine), n=6); 234.5 (±5.1) g in series [5] (Group 1, 24 wks post-STZ (15 wks L-arginine), n=25); 203.2 (±6.4) g in series [5] (setting [16]). For the same compound, the results for the “mean (±SEM) body weight” value in series [5] (setting [17]), in series [5] (setting [18]) and in series [5] (setting [19]) were 220.9 (±11.6) g, 207.8 (±10.7) g and 221.7 (±11.7) g, respectively. Moreover, the paw withdrawal threshold was 6.8 (±0.3) g in series [4] (Group 1, 9 wks post-STZ (start of dietary L-arginine 1 g/day)); 4.3 (±0.1) g in series [4] (setting [15]); 5.2 (±0.1) g in series [4] (Group 1, 24 wks post-STZ (15 wks L-arginine)); 4.9 (±0.2) g in series [4] (setting [16]); 6.1 (±0.4) g in series [4] (setting [17]); 3.9 (±0.2) g in series [4] (setting [18]). Besides, the paw withdrawal threshold in series [4] (setting [19]) is 5.0 (±0.2) g.

`COc1ccc2c3c1O[C@H]1C(=O)CC[C@@]4(O)[C@@H](C2)N(C)CC[C@]314` [oxycodone]: in series [1] (12 wks post-STZ, standard chow, s.c.), the antinociceptive efficacy/potency entry is “maintained”. Besides, in series [1] (setting [7]), the antinociceptive efficacy entry was “maintained”. For the same compound, the ED50 in series [1] (setting [8]) was 2 mg/kg; in series [1] (setting [9]) it was 2.1 ± 0.4 mg/kg; in series [1] (setting [10]), 2.1 mg/kg; in series [1] (2016 h, read-out: Mean (±SEM) ED50, STZ-diabetic rats 12 wks post-STZ, standard chow, s.c.), 4.1 mg/kg; in series [1] (4032 h, read-out: Mean (±SEM) ED50, STZ-diabetic rats 24 wks post-STZ, standard chow, s.c.) it was 4.2 mg/kg; in series [1] (setting [11]), 2 ± 0.3 mg/kg. Further, the ED50 in series [1] (setting [12]) amounted to 1.8 ± 0.3 mg/kg; in series [2] (Rattus norvegicus, sc, 168 h, control non-diabetic rats, dietary L-arginine 1 g/day for 1 wk, read-out: ED50), 1 ± 0.1 mg/kg; in series [2] (setting [13]) it was 1.2 mg/kg. Besides, the “potency relative to morphine for alleviation of mechanical allodynia” value in series [1] (STZ-diabetic rats 3 wks post-STZ, s.c.) is “≈ 3 times”. The “decrease in potency between 9 and 12 wks post-STZ” value in series [1] (STZ-diabetic rats, standard chow) amounted to 2 fold. Also, in series [1] (at 12 wks post-STZ, unchanged at 24 wks, standard chow), the “decrease in antinociceptive potency relative to control non-diabetic rats” value was 4 fold. Besides, in series [1] (by 3 wks post-STZ), the “rightward shift in the dose-response curve versus non-diabetic rats” value is recorded as “≈ 1.7 fold”. For the same compound, in series [1] (by 9 wks post-STZ), the “decrease in potency relative to weight-matched control non-diabetic rats” value is on record as “≈ 2 fold”. The compound further returned a peak antinociception in series [1] (oxycodone 1.7 mg/kg s.c.) of 90 % MPE. In series [1] (oxycodone 1.7 mg/kg s.c.), the “time of decline of antinociception to baseline levels (<20% MPE)” value is listed as at most 120 min. Further, the “time to peak antinociception” value in series [1] (oxycodone 1.7 mg/kg s.c.) is at most 30 min. The “% MPE AUC” value came out at 108.7±13.2 % MPE-h in series [1] (oxycodone 2.0 mg/kg s.c., 9 wks post-STZ, standard chow); 37.0±1.1 % MPE-h in series [1] (oxycodone 2.0 mg/kg s.c., 12 wks post-STZ, standard chow); 139.4±9.4 MPE-h in series [1] (oxycodone 2.0 mg/kg s.c., 22 wks post-STZ, 8 wks dietary L-arginine (Group 2)); 147.0±1.9 % MPE-h in series [1] (oxycodone 2.0 mg/kg s.c., 38 wks post-STZ, 8 wks dietary L-arginine (Group 3)); 144.0±13.7 MPE-h in series [1] (oxycodone 4.0 mg/kg s.c., 24 wks post-STZ, standard chow). In addition, the “% MPE AUC (±SEM)” value in series [1] (oxycodone 2.0 mg/kg s.c., 20 wks post-STZ, 11 wks dietary L-arginine (Group 1)) is 160.3±7.6 % MPE-h. In addition, in series [1] (oxycodone, 11 wks dietary L-arginine (20 wks post-STZ)), the “potency for relief of mechanical allodynia as percent of that in diabetic rats on standard chow at 9 wks post-STZ” value is reported as “≈ 150%”. Besides, the “potency relative to morphine” value with naïve Dark Agouti rats was “≈ 3 times”; in series [2] (printed: at 3 and 9 wks post-STZ, s.c. route, naïve non-diabetic rats) it was “≈ 2 fold”; in series [6] it was “≈ 4 times”.
